Experimental data from publication PMC12037037 (Proceedings of the National Academy of Sciences of the …, 2025).

System: C57BL/6J mice
Assay: Prepulse inhibition (PPI)
Format: in vivo
Procedure: Amphetamine-Induced Locomotion. The amphetamine-induced hyperlocomotion assay was performed using male and female C57BL/6J mice that were approximately 8 weeks old at the time of the experiments. Animals were first placed in the test arena (40 cm x 40 cm) for 15 min to obtain a basal reading of locomotion and habituate them to the testing arena.
Next, animals were administered (+)-JRT (1 mg/kg) or VEH (2.5 mL/kg, i.p) and placed back in the test arena. After 15 min, the animals were administered (+)-amphetamine (3 mg/kg) or VEH (2.5 mL/kg) and placed back in the test arena for 60 minutes. Locomotion during the entire experiment was quantified using ANYmaze Video Tracking System, version 7.07 (Stoelting Co.). The test arena was cleaned thoroughly with 70% ethanol between trials.
PCP-Induced Locomotion. The PCP-induced hyperlocomotion assay was performed by Psychogenics using male C57BL/6J mice that were approximately 8 weeks old at the time of the experiments. The experiment was performed during the animal’s light cycle phase. […] Baseline activity was recorded for 30 min. […] Locomotion was assessed using consecutive infrared beam breaks. […]
Next, startle response was measured in response to five 40 ms sound bursts of 80, 90, 100, 110, or 120 dB (random order, fixed intertrial interval). […] Percent PPI was calculated according to the formula: 100 – [(pre-pulse + pulse)/pulse alone) × 100. […]

CCN(CC)C(=O)[C@@H]1C=C2c3cccc4ccn(c34)C[C@H]2N(C)C1 [(+)-JRT]
Deficits in prepulse inhibition induced by the compound itself (1 mg/kg IP): did not induce any deficits in PPI
Effect of pretreatment on MK-801-induced deficits in prepulse inhibition (1 mg/kg IP pretreatment, MK-801): did not exacerbate
